Assay results published in patent publication US20110171663A1, “MICROTRENCH AND TUMOUR PROLIFERATION ASSAY” (University College Cardiff Consultants Ltd, priority 2008, published 2011).

System: U-2 OS (ATCC HTB-96) human osteosarcoma cell line
Experiment: Timelapse imaging determination of sequential intermitotic times (IMT1, IMT2) in cell lineages
Type: cell-based
Settings: U-2 OS lineages from progenitors exposed to 10 μM topotecan for 1 h
Experimental: Human osteosarcoma cell line (U-2 OS (ATCC HTB-96)23) derived from a person were used. The cells were maintained at 37° C. and 5% CO2 using standard tissue culture techniques. Media used was McCoys 5A modified (Sigma) supplemented with 2 mM glutamine, 100 units/ml penicillin, 100 μg/ml streptomycin and 10% fetal calf serum. The cells were seeded onto tissue culture plastic, PDMS layer with and without PDMS microtrench arrays and placed in a six-well multi-well dish (10^4 cells per ml) and left to establish for 24 hours. Post-24 hours incubation the culture dish was then immediately placed onto a timelapse imaging instrument designed to capture transmission phase images from multi-well plates. An Axiovert 100 microscope (Carl Zeiss, Welwyn Garden City, UK) was fitted with an incubator for 37° C./5% CO2 maintenance (Solent Scientific, Portsmouth, UK), and an ORCA-ER CCD camera (Hamamatsu, Reading, UK). All images were collected with a x10 (PH1) apochromat objective lens providing a full view of each microtrench format. Sequences were captured sampling at 15 min, and for three fields per treatment regime (using AQM, Kinetic Imaging, Nottingham, UK). MetaMorph software (Molecular Devices, California) was used to view the stacked image in sequence as for each experiment the images were stacked and saved as *.stk format. […]

With `CC[C@@]1(O)C(=O)OCc2c1cc1n(c2=O)Cc2cc3c(CN(C)C)c(O)ccc3nc2-1` [topotecan] the “IMT2 (av ± sd)” value (time between the division generating daughters and the division generating granddaughters) was 22.9 ± 5.5 and the “IMT1 (av ± sd)” value (time between the division generating the mother cell and the division generating two daughters) was 24 ± 4.4.
